# Measurements reported in ChEMBL document CHEMBL4004838, “Design and synthesis of novel phenyl -1, 4-beta-carboline-hybrid molecules as potential anticancer agents” (Eur J Med Chem, 2017).
# Calls of active or inactive are those of the source. The calls are words filed in the database; no cut-off is given here.
# Assays:
# [1] = test system: T47D; experiment: Growth inhibition of human T47D cells assessed as cell growth at 100 uM incubated for 48 hrs by sulforhodamine B assay relative to control; type: functional; details: read-out: Activity
# [2] = test system: PC-3; experiment: Growth inhibition of human PC3 cells assessed as cell growth at 100 uM incubated for 48 hrs by sulforhodamine B assay relative to control; type: functional; details: PC-3, 48 h, read-out: Activity
# [3] = test system: A549; experiment: Growth inhibition of human A549/ATCC cells assessed as cell growth at 0.01 uM incubated for 48 hrs by sulforhodamine B assay relative to control; type: functional; details: A549, 48 h, read-out: Activity
# [4] = test system: SNB-75; experiment: Growth inhibition of human SNB75 cells assessed as cell growth at 0.1 uM incubated for 48 hrs by sulforhodamine B assay relative to control; type: functional; details: SNB-75, 48 h, read-out: Activity
# [5] = species on record: Bos taurus; experiment: Induction of calf thymus DNA intercalation assessed as compound-DNA complex formation at 5 uM incubated for 1 hr by ethidium bromide staining based agarose gel electrophoresis relative to control
# [6] = test system: BT-549; experiment: Growth inhibition of human BT549 cells assessed as cell growth at 1 uM incubated for 48 hrs by sulforhodamine B assay relative to control; type: functional; details: BT-549, 48 h, read-out: Activity
# [7] = test system: MDA-MB-468; experiment: Growth inhibition of human MDA-MB-468 cells assessed as cell growth at 100 uM incubated for 48 hrs by sulforhodamine B assay relative to control; type: functional; details: MDA-MB-468, 48 h, read-out: Activity
# [8] = test system: PC-3; experiment: Growth inhibition of human PC3 cells incubated for 48 hrs by sulforhodamine B assay; type: functional; details: PC-3, 48 h
# [9] = test system: Malme-3M; experiment: Growth inhibition of human MALME-3M cells incubated for 48 hrs by sulforhodamine B assay; type: functional
# [10] = test system: NCI-H460; experiment: Growth inhibition of human NCI-H460 cells assessed as cell growth at 100 uM incubated for 48 hrs by sulforhodamine B assay relative to control; type: functional; details: NCI-H460, 48 h, read-out: Activity
# [11] = test system: HL-60(TB); experiment: Growth inhibition of human HL-60(TB) cells assessed as cell growth at 0.01 uM incubated for 48 hrs by sulforhodamine B assay relative to control; type: functional; details: HL-60, 48 h, read-out: Activity
# [12] = test system: SW-620; experiment: Growth inhibition of human SW620 cells assessed as cell growth at 100 uM incubated for 48 hrs by sulforhodamine B assay relative to control; type: functional; details: SW-620, 48 h, read-out: Activity
# [13] = test system: SK-MEL-28; experiment: Growth inhibition of human SK-MEL-28 cells assessed as cell growth at 0.01 uM incubated for 48 hrs by sulforhodamine B assay relative to control; type: functional; details: SK-MEL-28, 48 h, read-out: Activity
# [14] = test system: MOLT-4; experiment: Growth inhibition of human MOLT4 cells assessed as cell growth at 0.01 uM incubated for 48 hrs by sulforhodamine B assay relative to control; type: functional; details: MOLT-4, 48 h, read-out: Activity
# [15] = test system: OVCAR-5; experiment: Growth inhibition of human OVCAR5 cells assessed as cell growth at 1 uM incubated for 48 hrs by sulforhodamine B assay relative to control; type: functional; details: OVCAR-5, 48 h, read-out: Activity
# [16] = test system: EKVX; experiment: Growth inhibition of human EKVX cells assessed as cell growth at 0.1 uM incubated for 48 hrs by sulforhodamine B assay relative to control; type: functional; details: read-out: Activity
# [17] = test system: RPMI-8226; experiment: Growth inhibition of human RPMI8226 cells assessed as cell growth at 0.1 uM incubated for 48 hrs by sulforhodamine B assay relative to control; type: functional; details: RPMI-8226, 48 h, read-out: Activity
# [18] = test system: MCF7; experiment: Growth inhibition of human MCF7 cells assessed as cell growth at 100 uM incubated for 48 hrs by sulforhodamine B assay relative to control; type: functional; details: MCF7, 48 h, read-out: Activity
# [19] = test system: LOX IMVI; experiment: Growth inhibition of human LOXIMVI cells assessed as cell growth at 0.01 uM incubated for 48 hrs by sulforhodamine B assay relative to control; type: functional; details: read-out: Activity
# [20] = test system: Hs-578T; experiment: Growth inhibition of human Hs 578T cells incubated for 48 hrs by sulforhodamine B assay; type: functional
# [21] = test system: SF-539; experiment: Growth inhibition of human SF539 cells assessed as cell growth at 100 uM incubated for 48 hrs by sulforhodamine B assay relative to control; type: functional; details: SF-539, 48 h, read-out: Activity
# [22] = test system: A549; experiment: Growth inhibition of human A549/ATCC cells incubated for 48 hrs by sulforhodamine B assay; type: functional; details: A549, 48 h
# [23] = test system: CAKI-1; experiment: Growth inhibition of human Caki1 cells assessed as cell growth at 0.01 uM incubated for 48 hrs by sulforhodamine B assay relative to control; type: functional; details: CAKI-1, 48 h, read-out: Activity
# [24] = test system: KM12; experiment: Growth inhibition of human KM12 cells assessed as cell growth at 0.01 uM incubated for 48 hrs by sulforhodamine B assay relative to control; type: functional; details: KM12, 48 h, read-out: Activity
# [25] = test system: SK-MEL-5; experiment: Growth inhibition of human SK-MEL-5 cells assessed as cell growth at 100 uM incubated for 48 hrs by sulforhodamine B assay relative to control; type: functional; details: SK-MEL-5, 48 h, read-out: Activity
# [26] = test system: UACC-62; experiment: Growth inhibition of human UACC62 cells assessed as cell growth at 0.01 uM incubated for 48 hrs by sulforhodamine B assay relative to control; type: functional; details: UACC-62, 48 h, read-out: Activity
# [27] = test system: CAKI-1; experiment: Growth inhibition of human Caki1 cells assessed as cell growth at 1 uM incubated for 48 hrs by sulforhodamine B assay relative to control; type: functional; details: CAKI-1, 48 h, read-out: Activity
# [28] = test system: RXF 393; experiment: Growth inhibition of human RXF393 cells incubated for 48 hrs by sulforhodamine B assay; type: functional; details: RXF 393, 48 h
# [29] = biological target: Albumin (Bos taurus, UniProt P02769); experiment: Binding affinity to Bovine serum albumin assessed as at 0.10 to 1 uM by UV-Visible spectrophotometric method; type: ADME; details: cattle, isolated protein
# Sequence of Albumin (P02769 whole entry): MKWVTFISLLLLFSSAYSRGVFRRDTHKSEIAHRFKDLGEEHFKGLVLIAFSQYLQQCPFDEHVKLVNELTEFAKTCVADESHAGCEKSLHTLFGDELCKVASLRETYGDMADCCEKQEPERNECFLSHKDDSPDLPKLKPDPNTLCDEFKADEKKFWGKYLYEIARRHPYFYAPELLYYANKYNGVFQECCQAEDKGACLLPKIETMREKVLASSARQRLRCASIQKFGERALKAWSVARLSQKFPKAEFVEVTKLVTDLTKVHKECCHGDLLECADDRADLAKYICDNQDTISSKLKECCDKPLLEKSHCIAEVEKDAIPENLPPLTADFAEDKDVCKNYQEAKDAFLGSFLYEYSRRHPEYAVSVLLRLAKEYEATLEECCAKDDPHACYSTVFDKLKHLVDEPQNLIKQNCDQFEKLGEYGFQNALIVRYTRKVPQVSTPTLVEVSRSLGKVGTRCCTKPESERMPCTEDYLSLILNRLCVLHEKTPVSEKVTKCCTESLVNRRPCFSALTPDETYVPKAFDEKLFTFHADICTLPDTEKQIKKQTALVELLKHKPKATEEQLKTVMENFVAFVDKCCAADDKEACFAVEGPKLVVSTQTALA
# [30] = test system: IGROV-1; experiment: Growth inhibition of human IGROV1 cells assessed as cell growth at 1 uM incubated for 48 hrs by sulforhodamine B assay relative to control; type: functional; details: IGROV-1, 48 h, read-out: Activity
# [31] = read-out: LC50 (the source's name)
# [32] = read-out: pLC50 (the source's name) (converted)
smiles,measurement,setting,value
c1ccc2c3c([nH]c2c1)C(c1ccc(C2NCCc4c2[nH]c2ccccc42)cc1)NCC3 (racemic),growth at 100 µM,[1],-72%
same,growth at 100 µM,[2],-93%
same,growth at 0.01 µM,[3],104%
same,growth at 0.1 µM,[4],72%
same,Activity,[5],Active
same,growth at 1 µM,[6],85%
same,growth at 100 µM,[7],-78%
same,GI50,[8]; read-out: GI50,1.27 µM
same,CC50,[8]; [31],5.69 µM
same,TGI,[8]; read-out: TGI,2690 nM
same,GI50,[8]; read-out: pGI50 (converted),1.26 µM
same,CC50,[8]; [32],5.75 µM
same,TGI,[8]; read-out: pTGI (converted),2690 nM
same,GI50,[9]; read-out: GI50,1550 nM
same,CC50,[9]; [31],6.24 µM
same,TGI,[9]; read-out: TGI,3.11 µM
same,GI50,[9]; read-out: pGI50 (converted),1550 nM
same,CC50,[9]; [32],6.17 µM
same,TGI,[9]; read-out: pTGI (converted),3.09 µM
same,growth at 100 µM,[10],85%
same,growth at 0.01 µM,[11],109%
same,growth at 100 µM,[12],87%
same,growth at 0.01 µM,[13],95%
same,growth at 0.01 µM,[14],110%
same,growth at 1 µM,[15],85%
same,growth at 0.1 µM,[16],90%
same,growth at 0.1 µM,[17],105%
same,growth at 100 µM,[18],-74%
same,growth at 0.01 µM,[19],94%
same,GI50,[20]; read-out: GI50,1430 nM
same,CC50,[20]; [31],11.5 µM
same,TGI,[20]; read-out: TGI,3.82 µM
same,GI50,[20]; read-out: pGI50 (converted),1450 nM
same,CC50,[20]; [32],11.5 µM
same,TGI,[20]; read-out: pTGI (converted),3.8 µM
same,growth at 100 µM,[21],97%
same,GI50,[22]; read-out: GI50,1100 nM
same,TGI,[22]; read-out: TGI,2540 nM
same,GI50,[22]; read-out: pGI50 (converted),1100 nM
same,TGI,[22]; read-out: pTGI (converted),2510 nM
same,growth at 0.01 µM,[23],90%
same,growth at 0.01 µM,[24],101%
same,growth at 100 µM,[25],93%
same,growth at 0.01 µM,[26],96%
same,growth at 1 µM,[27],78%
same,GI50,[28]; read-out: GI50,1310 nM
same,CC50,[28]; [31],5.45 µM
same,TGI,[28]; read-out: TGI,2.67 µM
same,GI50,[28]; read-out: pGI50 (converted),1320 nM
same,CC50,[28]; [32],5.5 µM
same,TGI,[28]; read-out: pTGI (converted),2.69 µM
same,Activity,[29],Active
same,growth at 1 µM,[30],70%
c1ccc2[nH]c(-c3ccc(-c4nccc5c4[nH]c4ccccc45)cc3)nc2c1,growth at 100 µM,[1],53%
same,growth at 100 µM,[2],71%
same,growth at 0.01 µM,[3],98%
same,growth at 0.1 µM,[4],78%
same,Activity,[5],Active
same,growth at 1 µM,[6],90%
same,growth at 100 µM,[7],63%
same,GI50,[8]; read-out: GI50,8.59 µM
same,CC50,[8]; [31],6.68 µM
same,GI50,[8]; read-out: pGI50 (converted),8.51 µM
same,CC50,[8]; [32],66.1 µM
same,TGI,[8]; read-out: pTGI (converted),25100 nM
same,GI50,[9]; read-out: GI50,1850 nM
same,CC50,[9]; [31],7.07 µM
same,TGI,[9]; read-out: TGI,3.61 µM
same,GI50,[9]; read-out: pGI50 (converted),1860 nM
same,CC50,[9]; [32],7.08 µM
same,TGI,[9]; read-out: pTGI (converted),3.63 µM
same,growth at 100 µM,[10],38%
same,growth at 0.01 µM,[11],95%
same,growth at 100 µM,[12],33%
same,growth at 0.01 µM,[13],96%
same,growth at 0.01 µM,[14],96%
same,growth at 1 µM,[15],96%
same,growth at 0.1 µM,[16],96%
same,growth at 0.1 µM,[17],105%
same,growth at 100 µM,[18],72%
same,growth at 0.01 µM,[19],93%
same,GI50,[20]; read-out: GI50,2230 nM
same,TGI,[20]; read-out: TGI,5.93 µM
same,GI50,[20]; read-out: pGI50 (converted),2240 nM
same,CC50,[20]; [32],> 100 µM
same,TGI,[20]; read-out: pTGI (converted),5.89 µM
same,growth at 100 µM,[21],70%
same,GI50,[22]; read-out: GI50,4150 nM
same,LC50 (concentration killing 50% of starting cells),[22]; read-out: LC50,7.98 µM
same,GI50,[22]; read-out: pGI50 (converted),4170 nM
same,LC50 (concentration killing 50% of starting cells),[22]; read-out: pLC50 (converted),79.4 µM
same,TGI,[22]; read-out: pTGI (converted),18600 nM
same,growth at 0.01 µM,[23],91%
same,growth at 0.01 µM,[24],95%
same,growth at 100 µM,[25],86%
same,growth at 0.01 µM,[26],89%
same,growth at 1 µM,[27],91%
same,GI50,[28]; read-out: GI50,1930 nM
same,CC50,[28]; [31],6.45 µM
same,TGI,[28]; read-out: TGI,3.53 µM
same,GI50,[28]; read-out: pGI50 (converted),1950 nM
same,CC50,[28]; [32],6.46 µM
same,TGI,[28]; read-out: pTGI (converted),3.55 µM
same,Activity,[29],Active
same,growth at 1 µM,[30],102%
